Results as given in patent US20260042731A1, “(2,4-DICHLOROPHENOXY)ACETIC ACID ANALOGS” (CORTEVA AGRISCIENCE LLC, priority 2022, published 2026).
Where two headings read alike, the source gives them in different places.

How the values were obtained:
[1] = tested on: Amaranthus rudis (AMATA), tall water hemp; assay: Postemergence herbicide evaluation, growth of Amaranthus rudis (AMATA); format: in vivo; conditions: Amaranthus tuberculatus, post-emergence, read-out: Ave. AMATA
[2] = tested on: Ambrosia artemisiifolia (AMBEL), common ragweed; assay: Postemergence herbicide evaluation, growth of Ambrosia artemisiifolia (AMBEL); format: in vivo; conditions: Ambrosia artemisiifolia, post-emergence, read-out: AVE. AMBEL
[3] = tested on: Abutilon theophrasti (ABUTH), velvetleaf; assay: Postemergence herbicide evaluation, growth of Abutilon theophrasti (ABUTH); format: in vivo; conditions: Abutilon theophrasti, post-emergence, read-out: AVE. ABUTH
[4] = tested on: Chenopodium album (CHEAL), common lambsquarters; assay: Postemergence herbicide evaluation, growth of Chenopodium album (CHEAL); format: in vivo; conditions: Chenopodium album, post-emergence, read-out: Ave. CHEAL
[5] = tested on: glyphosate resistant Conyza canadensis (L.) (ERICA), horseweed; assay: Postemergence herbicide evaluation, growth of Conyza canadensis (ERICA); format: in vivo; conditions: Erigeron canadensis, post-emergence, read-out: Ave. ERICA
[6] = Volatility of compounds measured by thermogravimetric analysis (TGA); format: physicochemical
[7] = tested on: weeds (ABUTH, AMATA, AMBEL, CHEAL, ERICA); assay: Postemergence herbicide evaluation, overall average % weed control across ABUTH, AMATA, AMBEL, CHEAL, ERICA; format: in vivo; conditions: post-emergence, average over the five weeds, read-out: Overall Ave % Weed Control; for pest or weed control at 280 g/ha: 280 g ae/ha; for pest or weed control at 560 g/ha: 560 g ae/ha
[8] = 168 h, 280 g ae/ha, 7 DAA, percent reduction in plant size relative to untreated control
[9] = 168 h, 560 g ae/ha, 7 DAA, percent reduction in plant size relative to untreated control
[10] = 336 h, 280 g ae/ha, 14 DAA, percent reduction in plant size relative to untreated control
[11] = 336 h, 560 g ae/ha, 14 DAA, percent reduction in plant size relative to untreated control
[12] = 504 h, 280 g ae/ha, 21 DAA, percent reduction in plant size relative to untreated control
[13] = 504 h, 560 g ae/ha, 21 DAA, percent reduction in plant size relative to untreated control

`O=C(COc1ccc(Cl)cc1Cl)O/N=C/c1ccc(/C=N/OC(=O)COc2ccc(Cl)cc2Cl)cc1` [Compound B3, (1,1′)-4-(-((2-(2,4-Dichlorophenoxy)acetoxy)imino)methyl)benzaldehyde-O-(2-(2,4-dichlorophenoxy)acetyl) oxime] showed a pest or weed control at 280 g/ha [1, 8] of 60%, a pest or weed control at 560 g/ha [1, 9] of 70% and a pest or weed control at 280 g/ha [1, 10] of 58%. It also gave a pest or weed control at 560 g/ha [1, 11] of 68%, a pest or weed control at 280 g/ha [1, 12] of 58% and a pest or weed control at 560 g/ha [1, 13] of 68%. For the same compound, the pest or weed control at 280 g/ha [2, 8] was 23%, the pest or weed control at 560 g/ha [2, 9] was 48% and the pest or weed control at 280 g/ha [2, 10] was 45%. It also gave a pest or weed control at 560 g/ha [2, 11] of 50%, a pest or weed control at 280 g/ha [2, 12] of 45% and a pest or weed control at 560 g/ha [2, 13] of 53%. It also gave a pest or weed control at 280 g/ha [3, 8] of 33%, a pest or weed control at 560 g/ha [3, 9] of 60% and a pest or weed control at 280 g/ha [3, 10] of 13%. The pest or weed control at 560 g/ha [3, 11] was 58%, the pest or weed control at 280 g/ha [3, 12] was 12% and the pest or weed control at 560 g/ha [3, 13] was 58%. It also gave a pest or weed control at 280 g/ha [4, 8] of 65%, a pest or weed control at 560 g/ha [4, 9] of 68% and a pest or weed control at 280 g/ha [4, 10] of 68%. For the same compound, the pest or weed control at 560 g/ha [4, 11] was 70%, the pest or weed control at 280 g/ha [4, 12] was 68% and the pest or weed control at 560 g/ha [4, 13] was 70%. For the same compound, the pest or weed control at 280 g/ha [5, 8] was 55%, the pest or weed control at 560 g/ha [5, 9] was 65% and the pest or weed control at 280 g/ha [5, 10] was 78%. The pest or weed control at 560 g/ha [5, 11] was 80%, the pest or weed control at 280 g/ha [5, 12] was 85% and the pest or weed control at 560 g/ha [5, 13] was 80%. For the same compound, the “TGA Data (rate of weight loss, volatility)” value [6] was 0.8 µg/min, the pest or weed control at 280 g/ha ([7]; 168 h, 7 DAA) was 47% and the pest or weed control at 560 g/ha ([7]; 168 h, 7 DAA) was 62%. For the same compound, the pest or weed control at 280 g/ha ([7]; 336 h, 14 DAA) was 52%, the pest or weed control at 560 g/ha ([7]; 336 h, 14 DAA) was 65% and the pest or weed control at 280 g/ha ([7]; 504 h, 21 DAA) was 53%. It also gave a pest or weed control at 560 g/ha ([7]; 504 h, 21 DAA) of 66%.

Work on `O=C(COc1ccc(Cl)cc1Cl)Nc1ccc(Cl)cc1` [Compound D6, N-(4-Chlorophenyl)-2-(2,4-dichlorophenoxy)acetamide] yielded a pest or weed control at 280 g/ha ([1]; 168 h) of 68%, a pest or weed control at 560 g/ha ([1]; 168 h) of 63% and a pest or weed control at 280 g/ha ([1]; 336 h) of 84%. The pest or weed control at 560 g/ha ([1]; 336 h) was 70%, the pest or weed control at 280 g/ha ([1]; 504 h) was 80% and the pest or weed control at 560 g/ha ([1]; 504 h) was 65%. The pest or weed control at 280 g/ha ([2]; 168 h) was 58%, the pest or weed control at 560 g/ha ([2]; 168 h) was 58% and the pest or weed control at 280 g/ha ([2]; 336 h) was 78%. The pest or weed control at 560 g/ha ([2]; 336 h) was 68%, the pest or weed control at 280 g/ha ([2]; 504 h) was 88% and the pest or weed control at 560 g/ha ([2]; 504 h) was 63%. For the same compound, the pest or weed control at 280 g/ha ([3]; 168 h) was 50%, the pest or weed control at 560 g/ha ([3]; 168 h) was 60% and the pest or weed control at 280 g/ha ([3]; 336 h) was 33%. It also gave a pest or weed control at 560 g/ha ([3]; 336 h) of 58%, a pest or weed control at 280 g/ha ([3]; 504 h) of 35% and a pest or weed control at 560 g/ha ([3]; 504 h) of 53%. It also gave a pest or weed control at 280 g/ha ([4]; 168 h) of 60%, a pest or weed control at 560 g/ha ([4]; 168 h) of 73% and a pest or weed control at 280 g/ha ([4]; 336 h) of 65%. The pest or weed control at 560 g/ha ([4]; 336 h) was 75%, the pest or weed control at 280 g/ha ([4]; 504 h) was 68% and the pest or weed control at 560 g/ha ([4]; 504 h) was 68%. It also gave a pest or weed control at 280 g/ha ([5]; 168 h) of 65%, a pest or weed control at 560 g/ha ([5]; 168 h) of 60% and a pest or weed control at 280 g/ha ([5]; 336 h) of 83%. It also gave a pest or weed control at 560 g/ha ([5]; 336 h) of 78%, a pest or weed control at 280 g/ha ([5]; 504 h) of 83% and a pest or weed control at 560 g/ha ([5]; 504 h) of 75%. The “TGA Data (rate of weight loss, volatility)” value [6] was 0.02 µg/min, the pest or weed control at 280 g/ha ([7]; 168 h, 7 DAA) was 60% and the pest or weed control at 560 g/ha ([7]; 168 h, 7 DAA) was 63%. It also gave a pest or weed control at 280 g/ha ([7]; 336 h, 14 DAA) of 68%, a pest or weed control at 560 g/ha ([7]; 336 h, 14 DAA) of 70% and a pest or weed control at 280 g/ha ([7]; 504 h, 21 DAA) of 71%. It also gave a pest or weed control at 560 g/ha ([7]; 504 h, 21 DAA) of 65%.
